This note sets out measurements from patent US9980943B2, “Methods of treating muscular dystrophy” (BOARD OF REGENTS OF THE NEVADA SYSTEM OF HIGHER EDUCATION, …, priority 2013, dated 2018).

Common to all, as to format: cell-based, mouse
In experiment [1] the test system is α7 integrin (LacZ reporter in α7βgal+/− myoblasts). Briefly: Myoblast α7+/LacZ integrin FDG assay (Burkin assay in myoblasts, 96-well). Particulars: α7+/LacZ myoblasts, 96-well.
The test system of experiment [2] is α7 integrin (LacZ reporter in α7+/LacZ myotubes). The experiment in a line: Myotube α7 integrin FDG assay (Burkin assay in myotubes, 96-well). Particulars: myotubes.
Experiment [3] relates to β-galactosidase in CMV-LacZ C2C12 myotubes. The experiment in a line: CMV-LacZ secondary screen in C2C12 myotubes (β-Gal stabilizing assay). Particulars: for CMV-LACZ in Myotubes (β-galactosidase activity relative to DMSO): CMV-LacZ C2C12 myotubes, 96-well format; for CMV-LACZ in Myotubes, signal relative to DMSO: C2C12 CMV-LacZ myotubes, fold relative to DMSO. In a few lines: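 Stable CMV-LacZ C2C12 clone; six-point curve 0.5–40 μM; duplicates.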

As for `CCOc1ccc(S(=O)(=O)NCCC(=O)NCC(c2cccs2)N2CCOCC2)cc1` (centres unmarked) [MLS001080869-01], the “Burkin Assay in Myoblasts, value relative to DMSO” value in experiment [1] (0.5 uM) turned out to be 1.144; in experiment [1] (1 uM), 1.036; in experiment [1] (5 uM), 1.147; in experiment [1] (10 uM), 0.9857; in experiment [1] (20 uM) it was 0.973; in experiment [1] (40 uM), 0.8485. Further, the “Burkin Assay in Myotubes (signal relative to DMSO)” value amounted to 1.011 in experiment [2] (0.5 uM); 0.9574 in experiment [2] (1 uM); 0.974 in experiment [2] (5 uM); 0.9257 in experiment [2] (10 uM); 0.9862 in experiment [2] (20 uM); 0.9802 in experiment [2] (40 uM). For the same molecule, the “CMV-LACZ in Myotubes (β-galactosidase activity relative to DMSO)” value is recorded as 0.9349 in experiment [3] (5 uM), 0.9153 in experiment [3] (10 uM), 0.9927 in experiment [3] (20 uM) and 1.01 in experiment [3] (40 uM).
Turning to `COc1cc(NC(=O)CN(C)S(=O)(=O)c2ccc3c(c2)CC(C)N3C(C)=O)cc(OC)c1OC` (centres unmarked) [MLS001122792-01], the “Burkin Assay in Myoblasts, value relative to DMSO” value was found to be 0.9702 in experiment [1] (0.5 uM); 0.8787 in experiment [1] (1 uM); 0.913 in experiment [1] (5 uM); 0.8643 in experiment [1] (10 uM); 0.9989 in experiment [1] (20 uM); 0.8058 in experiment [1] (40 uM). Moreover, the “Burkin Assay in Myotubes (signal relative to DMSO)” value in experiment [2] (0.5 uM) came to 1.192; in experiment [2] (1 uM), 1.032; in experiment [2] (5 uM), 1.102; in experiment [2] (10 uM), 0.6414; in experiment [2] (20 uM), 1.068; in experiment [2] (40 uM), 0.8522. Besides, the “CMV-LACZ in Myotubes, signal relative to DMSO” value in experiment [3] (5 uM) came out at 0.8137; in experiment [3] (10 uM), 0.9675; in experiment [3] (20 uM) it was 0.9969; in experiment [3] (40 uM), 0.7254.
